The structures appear in SMILES notation. Peptide text beside a SMILES is read from it.

This test has as its target T1, hSortilin (Homo sapiens, UniProt Q99523).
T1 sequence (Q99523 78-831): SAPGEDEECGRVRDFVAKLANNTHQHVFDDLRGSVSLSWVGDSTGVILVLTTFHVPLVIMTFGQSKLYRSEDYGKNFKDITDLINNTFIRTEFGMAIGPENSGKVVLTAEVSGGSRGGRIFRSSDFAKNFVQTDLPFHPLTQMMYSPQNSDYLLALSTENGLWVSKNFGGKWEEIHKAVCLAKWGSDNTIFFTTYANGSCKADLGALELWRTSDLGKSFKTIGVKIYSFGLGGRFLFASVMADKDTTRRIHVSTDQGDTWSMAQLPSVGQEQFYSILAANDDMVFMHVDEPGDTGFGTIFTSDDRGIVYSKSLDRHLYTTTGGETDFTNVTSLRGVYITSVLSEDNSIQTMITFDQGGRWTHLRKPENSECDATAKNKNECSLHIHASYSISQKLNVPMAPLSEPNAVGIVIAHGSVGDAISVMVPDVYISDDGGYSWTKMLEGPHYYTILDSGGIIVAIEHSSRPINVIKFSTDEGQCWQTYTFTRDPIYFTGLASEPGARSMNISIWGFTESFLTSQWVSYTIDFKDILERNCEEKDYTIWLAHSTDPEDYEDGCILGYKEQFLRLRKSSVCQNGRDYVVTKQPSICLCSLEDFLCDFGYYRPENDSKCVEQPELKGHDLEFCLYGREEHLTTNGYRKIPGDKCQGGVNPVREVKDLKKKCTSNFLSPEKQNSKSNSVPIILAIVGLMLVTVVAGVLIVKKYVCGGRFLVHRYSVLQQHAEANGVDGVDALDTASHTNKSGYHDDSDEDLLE
Nature of the test: Neurotensin scintillation proximity assay (displacement of [3H]-neurotensin binding). The note with it: displacement of 5 nM [3H]-neurotensin from 150 nM 6his-Sortilin; average of at least 2 determinations; read-out: IC50 [3H]Neurotensin SPA. As to the method:
The data of exemplified compounds of the invention tested in a Neurotensin (NTS) scintillation proximity assay (SPA). NTS, which is a 13 amino acid neuropeptide, is a sortilin ligand. The IC50 is a measure of the amount of the compound required to inhibit the binding of NTS to sortilin by 50%.
Compound affinity was determined by measuring the displacement of [^3H]-neurotensin binding to hSortilin in SPA format. Total volume of 40 μl in 50 mM HEPES pH 7.4 assay buffer containing 100 mM NaCl, 2.0 mM CaCl2, 0.1% BSA and 0.1% Tween-20. Compound pre-incubation for 30 minutes at room temperature with 150 nM of 6his-Sortilin before 5 nM [3H]-Neurotensin and Ni chelate imaging beads (Perkin Elmer) were added, after 6 hours the plate was read on a ViewLux with 360 s exposure time. Dose-response evaluation of compounds was performed with 8 concentrations of drugs (covering 3 decades). IC50 values were calculated by nonlinear regression using the sigmoid concentration-response (variable slope) using CDD Vault software. All values reported are average of at least 2 determinations.
Turning to `CC(C)(C)CC[C@H](NC(=O)[C@H](Cc1ccncc1)NC(=O)[C@H](Cc1ccc(O)cc1)NC(=O)[C@@H]1CCCN1)C(=O)O` [Example 8, (S)-2-((S)-2-((S)-3-(4-Hydroxyphenyl)-2-((S)-pyrrolidine-2-carboxamido)propan amido)-3-(pyridin-4-yl)propanamido)-5,5-dimethylhexanoic acid] (HELM PEPTIDE1{P.Y.[O=C([C@H](Cc1ccncc1)N[*:1])[*:2]].[CC(C)(C)CC[C@H](N[*:1])C(=O)O]}$$$$V2.0), the 50% inhibitory concentration (IC50) amounted to 200 nM.

On to `CC[C@H](C)[C@H](NC(=O)[C@H](Cc1ccc(O)cc1)NC(=O)[C@H]1CNCCN1)C(=O)N[C@@H](CCC(C)(C)C)C(=O)O` [Example 18, (S)-2-((2S,3S)-2-((S)-3-(4-Hydroxyphenyl)-2-((R)-piperazine-2-carboxamido)propan amido)-3-methylpentanamido)-5,5-dimethylhexanoic acid] (HELM PEPTIDE1{[O=C([C@H]1CNCCN1)[*:2]].Y.I.[CC(C)(C)CC[C@H](N[*:1])C(=O)O]}$$$$V2.0), for which the IC50 turned out to be 110 nM.

For `CC[C@H](C)[C@H](NC(=O)[C@H](Cc1ccc(O)cc1)NC(=O)[C@H]1CN(C(C)=O)CCO1)C(=O)N[C@@H](CCC(F)(F)F)C(=O)O` [Example 4, (S)-2-((2S,3S)-2-((S)-2-((R)-4-Acetylmorpholine-2-carboxamido)-3-(4-hydroxyphenyl)propanamido)-3-methylpentanamido)-5,5,5-trifluoropentanoic acid], the IC50 worked out at 1690 nM.

For `CC[C@H](C)[C@H](NC(=O)[C@H](Cc1ccc(O)cc1)NC(=O)[C@@H]1CNCCN1)C(=O)N[C@@H](CCC(C)(C)C)C(=O)O` [Example 19, (S)-2-((2S,3S)-2-((S)-3-(4-Hydroxyphenyl)-2-((S)-piperazine-2-carboxamido)propan amido)-3-methylpentanamido)-5,5-dimethylhexanoic acid] (HELM PEPTIDE1{[O=C([C@@H]1CNCCN1)[*:2]].Y.I.[CC(C)(C)CC[C@H](N[*:1])C(=O)O]}$$$$V2.0), the IC50 was determined as 100 nM.

With `CC[C@H](C)[C@H](NC(=O)[C@H](C)NC(=O)[C@@H]1CCCN1)C(=O)N[C@@H](CCC(C)(C)C)C(=O)O` [Example 17, (2S)-5,5-Dimethyl-2-((3S)-3-methyl-2-((S)-2-((S)-pyrrolidine-2-carboxamido)propan amido)pentanamido) hexanoic acid] (HELM PEPTIDE1{P.A.I.[CC(C)(C)CC[C@H](N[*:1])C(=O)O]}$$$$V2.0), the IC50 stood at 70 nM.

For `CC(C)(C)CC[C@H](NC(=O)[C@H](Cc1cccnc1)NC(=O)[C@H](Cc1ccc(O)cc1)NC(=O)[C@@H]1CCCN1)C(=O)O` [Example 6, (S)-2-((S)-2-((S)-3-(4-Hydroxyphenyl)-2-((S)-pyrrolidine-2-carboxamido)propan amido)-3-(pyridin-3-yl)propanamido)-5,5-dimethylhexanoic acid] (HELM PEPTIDE1{P.Y.[O=C([C@H](Cc1cccnc1)N[*:1])[*:2]].[CC(C)(C)CC[C@H](N[*:1])C(=O)O]}$$$$V2.0), the IC50 turned out to be 90 nM.

Consider `CC[C@H](C)[C@H](NC(=O)[C@H](Cc1ccc(O)cc1)NC(=O)[C@@H]1CCNC1)C(=O)N[C@@H](CCC(C)(C)C)C(=O)O` [Example 21, (S)-2-((2S,3S)-2-((S)-3-(4-Hydroxyphenyl)-2-((R)-pyrrolidine-3-carboxamido)propan amido)-3-methylpentanamido)-5,5-dimethylhexanoic acid], for which the IC50 was 180 nM.

Take `CC(C)(C)CC[C@H](NC(=O)[C@H](Cc1ccccn1)NC(=O)[C@H](Cc1ccc(O)cc1)NC(=O)[C@@H]1CCCN1)C(=O)O` [Example 5, (S)-2-((S)-2-((S)-3-(4-Hydroxyphenyl)-2-((S)-pyrrolidine-2-carboxamido)propanamido)-3-(pyridin-2-yl)propanamido)-5,5-dimethylhexanoic acid] (HELM PEPTIDE1{P.Y.[O=C([C@H](Cc1ccccn1)N[*:1])[*:2]].[CC(C)(C)CC[C@H](N[*:1])C(=O)O]}$$$$V2.0): the IC50 is 270 nM.

With `CC[C@H](C)[C@H](NC(=O)[C@H](Cc1ccc(O)cc1)NC(=O)[C@H]1COCCN1)C(=O)N[C@@H](CCC(C)(C)C)C(=O)O` [Example 23, (S)-2-((2S,3S)-2-((S)-3-(4-Hydroxyphenyl)-2-((R)-morpholine-3-carboxamido)propan amido)-3-methylpentanamido)-5,5-dimethylhexanoic acid], the 50% inhibitory concentration (IC50) was determined as 100 nM.

Take `CC[C@H](C)[C@H](NC(=O)[C@H](Cc1ccc(O)cc1)NC(=O)[C@H]1CN(C(C)=O)CCO1)C(=O)N[C@@H](CCC(C)(C)C)C(=O)O` [Example 25, (S)-2-((2S,3S)-2-((S)-2-((R)-4-Acetylmorpholine-2-carboxamido)-3-(4-hydroxyphenyl)propanamido)-3-methylpentanamido)-5,5-dimethylhexanoic acid]: the IC50 worked out at 140 nM.

In the case of `CC[C@H](C)[C@H](NC(=O)CNC(=O)[C@@H]1CCCN1)C(=O)N[C@@H](CCC(C)(C)C)C(=O)O` [Example 16, (2S)-5,5-Dimethyl-2-((3S)-3-methyl-2-(2-((S)-pyrrolidine-2-carboxamido)acetamido)pentanamido) hexanoic acid] (HELM PEPTIDE1{P.G.I.[CC(C)(C)CC[C@H](N[*:1])C(=O)O]}$$$$V2.0), the IC50 came to 80 nM.

Regarding `CC[C@H](C)[C@H](NC(=O)[C@H](Cc1ccc(O)cc1)NC(=O)[C@@H]1CCCO1)C(=O)N[C@@H](CCC(F)(F)F)C(=O)O` [Example 1, (S)-5,5,5-Trifluoro-2-((2S,3S)-2-((S)-3-(4-hydroxyphenyl)-2-((S)-tetrahydrofuran-2-carboxamido)propanamido)-3-methylpentanamido)pentanoic acid], the concentration for half-maximal inhibition (IC50) was 3170 nM.

For `CC[C@H](C)[C@H](NC(=O)[C@H](Cc1ccc(O)cc1)NC(=O)[C@H]1CCCO1)C(=O)N[C@@H](CCC(F)(F)F)C(=O)O` [Example 2, (2S)-5,5,5-trifluoro-2-[(2S,3S)-2-[(S)-3-(4-hydroxyphenyl)-2-{[(2R)-oxolan-2-yl]formamido}propanamido]-3-methylpentanamido] pentoic acid], the IC50 was found to be 2860 nM.

`Cn1cnc(C[C@H](NC(=O)[C@H](Cc2ccc(O)cc2)NC(=O)[C@@H]2CCCN2)C(=O)N[C@@H](CCC(C)(C)C)C(=O)O)c1` [Example 7, (S)-2-((S)-2-((S)-3-(4-Hydroxyphenyl)-2-((S)-pyrrolidine-2-carboxamido)propan amido)-3-(1-methyl-1H-imidazol-4-yl)propanamido)-5,5-dimethylhexanoic acid] (HELM PEPTIDE1{P.Y.[Cn1cnc(C[C@H](N[*:1])C(=O)[*:2])c1].[CC(C)(C)CC[C@H](N[*:1])C(=O)O]}$$$$V2.0): the IC50 is 370 nM.

In the case of `CC[C@H](C)[C@H](NC(=O)[C@H](Cc1ccc(O)cc1)NC(C)=O)C(=O)N[C@@H](CCC(C)(C)C)C(=O)O` [Example 28, (S)-2-((2S,3S)-2-((S)-2-Acetamido-3-(4-hydroxyphenyl)propanamido)-3-methylpentanamido)-5,5-dimethylhexanoic acid], the IC50 was 190 nM.

Take `CC[C@H](C)[C@H](NC(=O)[C@H](Cc1ccc(O)cc1)NC(=O)[C@@H]1CNCCO1)C(=O)N[C@@H](CCC(C)(C)C)C(=O)O` [Example 22, (S)-2-((2S,3S)-2-((S)-3-(4-Hydroxyphenyl)-2-((S)-morpholine-2-carboxamido)propan amido)-3-methylpentanamido)-5,5-dimethylhexanoic acid]: the IC50 turned out to be 70 nM.
